Experimental data from patent publication US11708359B2, “Monoacylglycerol lipase modulators” (Janssen Pharmaceutica NV, priority 2020, dated 2023).

Molecular target: human MGL from HeLa cells (Homo sapiens (Human), UniProt Q99685)
Experiment: MGL in vitro activity assay ([glycerol-1,3-3H]-oleoyl glycerol cleavage, activated carbon filter)
Format: biochemical
Details: 300 nM [Glycerol-1,3-3H]-oleoyl glycerol, endogenously expressed MGL from HeLa cells, one hour incubation; read-out: MGL IC50
Outline: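 Endogenous MGL in HeLa cells or homogenates was incubated with compound and 300 nM [glycerol-1,3-3H]-oleoyl glycerol for one hour. Reactions were filtered through activated carbon, and tritiated glycerol in the flow-through was counted as a measure of activity.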

Chain of human MGL from HeLa cells (Q99685 whole entry): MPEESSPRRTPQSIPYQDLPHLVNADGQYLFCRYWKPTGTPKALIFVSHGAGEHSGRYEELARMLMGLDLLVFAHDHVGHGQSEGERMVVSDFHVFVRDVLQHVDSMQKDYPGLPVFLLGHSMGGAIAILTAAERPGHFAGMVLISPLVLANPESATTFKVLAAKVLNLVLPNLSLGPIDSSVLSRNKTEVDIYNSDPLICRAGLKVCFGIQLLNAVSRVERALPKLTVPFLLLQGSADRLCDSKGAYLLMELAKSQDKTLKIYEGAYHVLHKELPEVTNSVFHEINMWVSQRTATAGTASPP

Row | SMILES | IC50 [nM]
1 | Cc1ccc([C@H]2[C@@H]3CN(C(=O)[C@H]4C[C@]5(COC(=O)N5)C4)C[C@@H]32)cc1C(F)(F)F [Example 85, (2s,4S)-2-((1R,5S,6S)-6-(4-Methyl-3-(trifluoromethyl)phenyl)-3-azabicyclo[3.1.0]hexane-3-carbonyl)-7-oxa-5-azaspiro[3.4]octan-6-one] | 4.4
2 | CCc1ccc([C@H]2[C@@H]3CN(C(=O)[C@H]4C[C@]5(COC(=O)N5)C4)C[C@@H]32)cc1 [Example 86, (2s,4S)-2-((1R,5S,6S)-6-(4-Ethylphenyl)-3-azabicyclo[3.1.0]hexane-3-carbonyl)-7-oxa-5-azaspiro[3.4]octan-6-one] | 25
3 | Cc1ccc([C@H]2[C@@H]3CN(C(=O)[C@H]4C[C@]5(COC(=O)N5)C4)C[C@@H]32)cc1C [Example 88, (2s,4S)-2-((1R,5S,6S)-6-(3,4-Dimethylphenyl)-3-azabicyclo[3.1.0]hexane-3-carbonyl)-7-oxa-5-azaspiro[3.4]octan-6-one] | 29
4 | CC(C)c1ccc([C@H]2[C@@H]3CN(C(=O)[C@H]4C[C@]5(COC(=O)N5)C4)C[C@@H]32)cc1 [Example 90, (2s,4S)-2-((1R,5S,6S)-6-(4-Isopropylphenyl)-3-azabicyclo[3.1.0]hexane-3-carbonyl)-7-oxa-5-azaspiro[3.4]octan-6-one] | 2.8
5 | CC(C)c1ccc([C@H]2[C@@H]3CN(C(=O)[C@H]4C[C@]5(CCC(=O)N5)C4)C[C@@H]32)cc1 [Example 91, (2r,4S)-2-((1R,5S,6S)-6-(4-Isopropylphenyl)-3-azabicyclo[3.1.0]hexane-3-carbonyl)-5-azaspiro[3.4]octan-6-one] | 20
6 | Cc1cc(C2CC2)ccc1[C@H]1[C@@H]2CN(C(=O)[C@H]3C[C@]4(COC(=O)N4)C3)C[C@@H]21 [Example 109, (2s,4S)-2-((1R,5S,6S)-6-(4-Cyclopropyl-2-methylphenyl)-3-azabicyclo[3.1.0]hexane-3-carbonyl)-7-oxa-5-azaspiro[3.4]octan-6-one] | 1.6
7 | CCc1cc([C@H]2[C@@H]3CN(C(=O)[C@H]4C[C@]5(COC(=O)N5)C4)C[C@@H]32)ccc1F [Example 111, (2s,4S)-2-((1R,5S,6S)-6-(3-Ethyl-4-fluorophenyl)-3-azabicyclo[3.1.0]hexane-3-carbonyl)-7-oxa-5-azaspiro[3.4]octan-6-one] | 11
8 | CC(C)(C)c1cccc([C@H]2[C@@H]3CN(C(=O)[C@H]4C[C@]5(COC(=O)N5)C4)C[C@@H]32)n1 [Example 116, (2s,4S)-2-((1R,5S,6R)-6-(6-(tert-Butyl)pyridin-2-yl)-3-azabicyclo[3.1.0]hexane-3-carbonyl)-7-oxa-5-azaspiro[3.4]octan-6-one] | 5.2

Further molecules by falling IC50, results first:

Row | IC50 [nM] | SMILES
9 | 300 | CC(C)(C(=O)O)c1cccc([C@H]2[C@@H]3CN(C(=O)[C@H]4C[C@]5(COC(=O)N5)C4)C[C@@H]32)c1 [Example 105]
10 | 178 | Cc1ccc([C@H]2[C@@H]3CN(C(=O)[C@H]4C[C@]5(CCC(=O)N5)C4)C[C@@H]32)cc1C [Example 89, (2r,4S)-2-((1R,5S,6S)-6-(3,4-Dimethylphenyl)-3-azabicyclo[3.1.0]hexane-3-carbonyl)-5-azaspiro[3.4]octan-6-one]
11 | 150 | Cc1ccccc1[C@H]1[C@@H]2CN(C(=O)[C@H]3C[C@]4(COC(=O)N4)C3)C[C@@H]21 [Example 98, (2s,4S)-2-((1R,5S,6S)-6-(o-Tolyl)-3-azabicyclo[3.1.0]hexane-3-carbonyl)-7-oxa-5-azaspiro[3.4]octan-6-one]
12 | 131 | CCc1ccc([C@H]2[C@@H]3CN(C(=O)[C@H]4C[C@]5(CCC(=O)N5)C4)C[C@@H]32)cc1 [Example 87, (2r,4S)-2-((1R,5S,6S)-6-(4-Ethylphenyl)-3-azabicyclo[3.1.0]hexane-3-carbonyl)-5-azaspiro[3.4]octan-6-one]
13 | 78 | Cc1c([C@H]2[C@@H]3CN(C(=O)[C@H]4C[C@]5(COC(=O)N5)C4)C[C@@H]32)cccc1C(F)(F)F [Example 113]
14 | 19 | CC(C)(CO)c1cccc([C@H]2[C@@H]3CN(C(=O)[C@H]4C[C@]5(COC(=O)N5)C4)C[C@@H]32)c1 [Example 104, (2s,4S)-2-((1R,5S,6S)-6-(3-(1-Hydroxy-2-methylpropan-2-yl)phenyl)-3-azabicyclo[3.1.0]hexane-3-carbonyl)-7-oxa-5-azaspiro[3.4]octan-6-one]
15 | 17 | Cc1ccc([C@H]2[C@@H]3CN(C(=O)[C@H]4C[C@]5(COC(=O)N5)C4)C[C@@H]32)cc1Cl [Example 110, (2s,4S)-2-((1R,5S,6S)-6-(3-Chloro-4-methylphenyl)-3-azabicyclo[3.1.0]hexane-3-carbonyl)-7-oxa-5-azaspiro[3.4]octan-6-one]
16 | 5.2 | Cc1ccc([C@H]2[C@@H]3CN(C(=O)[C@H]4C[C@]5(COC(=O)N5)C4)C[C@@H]32)cc1OC(F)(F)F [Example 115, (2s,4S)-2-((1R,5S,6S)-6-(4-Methyl-3-(trifluoromethoxy)phenyl)-3-azabicyclo[3.1.0]hexane-3-carbonyl)-7-oxa-5-azaspiro[3.4]octan-6-one]
17 | 1.5 | CC(C)Cc1cccc([C@H]2[C@@H]3CN(C(=O)[C@H]4C[C@]5(COC(=O)N5)C4)C[C@@H]32)c1 [Example 101, (2s,4S)-2-((1R,5S,6S)-6-(3-Isobutylphenyl)-3-azabicyclo[3.1.0]hexane-3-carbonyl)-7-oxa-5-azaspiro[3.4]octan-6-one]
